In patent publication US20050026270A1 (University of Maryland, priority 1999, published 2005):

What was measured:
[1] = Stability of subtilin: activity retained after storage or exposure to light
[2] = 120 h

Row | Substance | loss of activity on exposure to light ([1]; exposure to light) | loss of activity on storage ([1]; stored at 4° C. or 20° C.) | activity remaining after storage [2]
1 | subtilin | rapid loss of activity | loses activity rapidly | 
2 | subtilin [stable subtilin] |  |  | greater than 50%
